Measurements taken from patent US7960419B2, “Substituted carboxamides” (Eli Lilly and Company, priority 2006, dated 2011).

What was measured:
non-fasted male HSD rats = test: L5/L6 Spinal Nerve ligation model; type: in vivo, rat; details: non-fasted male HSD rats (300-350 g), at doses with no deficit in the rotorod test
Protocol: (§1) These well known pain models conveniently may be carried out as summarized below. […] All data are analyzed by ANOVA and Dunnett's t-test using JMPv4.1 (SAS Institute Inc., Cary, N.C.) statistical software unless otherwise indicated. Data are expressed as means±SEM. Specific conditions for each model are briefly described.
(§2) Formalin model: Drug is administered prior to formalin (50 μl, 5%), injected s.c. into the dorso-lateral surface of the right hindpaw. Paw-licking behavior is measured in an automated assay, as number of events, from 0-50 minutes after formalin. Data are expressed as paw-licking pain behavior events in early phase (0-5 minutes) or late phase (15-40 minutes). […] Two weeks later, mechanical allodynia behavior is measured using von Frey filaments using incremental bending forces (0.5-15 g) at various time points after drug administration. […] Thermal hyperalgesia is measured using a radiant heat source, with a 30 second cut off to prevent tissue damage. Paw withdrawal latency in seconds is measured as the difference between the inflammed paw and the non-inflammed left paw. […] Mechanical allodynia behavior is measured using von Frey filaments using incremental bending forces (0.5-15 g) at 15 minutes and 1 hour after capsaicin. […] Data are analyzed by ANOVA and Dunnett's t-test using JMPv4.1 (SAS Institute Inc., Cary, N.C.) statistical software. Data are expressed as means±SEM.

Male Sprague Dawley rats = test: Rotorod test; type: in vivo, rat; details: at the doses active in the pain models
Protocol: as §1, §2

[1] = test system: fasted male Harlan Sprague Dawley rats; test: Capsaicin model; type: in vivo, rat; details: fasted male HSD rats, at doses with no deficit in the rotorod test
Protocol: as §1, §2

[2] = target: T1, human recombinant mGlu1a receptor (Homo sapiens, UniProt Q13255); test: glutamate induced calcium flux (FLIPR, Fluo-3) in AV-12 cells expressing mGlu1a; type: cell-based; details: inhibition of peak fluorescence response to glutamate at EC90% (10 μM)
T1 construct: expressed in transfected cells
T1 sequence (Q13255 19-1194): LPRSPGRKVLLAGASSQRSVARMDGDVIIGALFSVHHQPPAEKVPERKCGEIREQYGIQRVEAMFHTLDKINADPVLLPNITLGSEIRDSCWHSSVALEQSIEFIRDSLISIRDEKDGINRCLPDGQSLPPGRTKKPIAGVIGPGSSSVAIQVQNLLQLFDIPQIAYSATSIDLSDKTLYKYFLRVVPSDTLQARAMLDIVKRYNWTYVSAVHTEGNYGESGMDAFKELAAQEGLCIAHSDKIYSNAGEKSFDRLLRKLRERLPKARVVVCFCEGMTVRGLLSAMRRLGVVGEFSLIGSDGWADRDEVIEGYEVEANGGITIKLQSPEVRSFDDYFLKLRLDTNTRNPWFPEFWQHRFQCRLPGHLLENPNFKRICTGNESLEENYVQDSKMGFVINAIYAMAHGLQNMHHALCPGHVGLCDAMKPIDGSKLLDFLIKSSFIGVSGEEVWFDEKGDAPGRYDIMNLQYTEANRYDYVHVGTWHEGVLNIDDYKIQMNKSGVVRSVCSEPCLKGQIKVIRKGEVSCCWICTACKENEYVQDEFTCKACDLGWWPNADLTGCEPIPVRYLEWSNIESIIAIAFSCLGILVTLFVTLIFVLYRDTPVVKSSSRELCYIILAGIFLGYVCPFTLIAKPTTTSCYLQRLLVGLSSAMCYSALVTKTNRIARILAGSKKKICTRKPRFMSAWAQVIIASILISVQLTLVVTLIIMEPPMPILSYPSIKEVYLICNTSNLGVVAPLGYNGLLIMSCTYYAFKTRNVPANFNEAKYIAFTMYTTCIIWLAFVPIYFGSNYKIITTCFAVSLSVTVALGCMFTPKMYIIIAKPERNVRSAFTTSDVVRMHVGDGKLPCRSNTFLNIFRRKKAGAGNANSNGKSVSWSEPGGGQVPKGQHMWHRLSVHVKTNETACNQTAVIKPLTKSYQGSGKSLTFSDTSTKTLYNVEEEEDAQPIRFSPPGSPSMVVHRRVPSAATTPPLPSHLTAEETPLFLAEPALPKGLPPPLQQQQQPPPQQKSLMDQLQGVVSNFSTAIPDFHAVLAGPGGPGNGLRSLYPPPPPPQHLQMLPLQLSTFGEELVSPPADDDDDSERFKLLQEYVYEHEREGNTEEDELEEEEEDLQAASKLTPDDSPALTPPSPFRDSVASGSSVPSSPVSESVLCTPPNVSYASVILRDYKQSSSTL
Protocol: The relative potency and selectivity of compounds of the instant invention for mGlu1 receptors is evaluated using stable clonal cell lines expressing recombinant mGlu1, 2, 3, 4. 5 or 8 receptors transfected into AV12 cell lines containing the rat EAAT1 glutamate transporter (RGT) cells.
For example, in more detail, compounds of the present invention are evaluated for effects on glutamate induced calcium flux responses using an AV-12 cell line expressing human recombinant mGlu1a receptor protein (see Kingston et al. Neuropharmacology. 37(1):1-12, 1998). mGlu1 receptor mediated responses are determined by changes in intracellular calcium concentrations measured by a fluorescent calcium sensitive dye Fluo-3. […] Unincorporated extracellular dye is removed from the wells by washing with buffer solution, and plates are then transferred to a 96-channel fluorimetric imaging plate reader (FLIPR-Molecular Devices Corporation, La Jolla, Calif., USA). Baseline fluorescence readings are undertaken for 10 sec prior to addition of test compounds by an automatic pipetting device integral to the FLIPR instrument. Following a 20 sec delay, glutamate is then added to the wells at an EC90% concentration (10 μM); and changes in fluorescence are monitored over 60 sec. […] IC50 values are calculated using a 4 parameter logistic curve fitting program (GraphPad Prism™ V4 or Activity Base™ V5.3 software).

[3] = test system: fasted male Harlan Sprague Dawley rats; test: Carrageenan model; type: in vivo, rat; details: fasted male HSD rats, at doses with no deficit in the rotorod test
Protocol: as §1, §2

[4] = test system: fasted male Harlan Sprague Dawley rats; test: Formalin model; type: in vivo, rat
Protocol: as §1
Formalin model: Drug is administered prior to formalin (50 μl, 5%), injected s.c. into the dorso-lateral surface of the right hindpaw. Paw-licking behavior is measured in an automated assay, as number of events, from 0-50 minutes after formalin. Data are expressed as paw-licking pain behavior events in early phase (0-5 minutes) or late phase (15-40 minutes). […] L5/L6 Spinal Nerve ligation model: Tight ligation is performed on L5 and L6 spinal nerves (one side only). Two weeks later, mechanical allodynia behavior is measured using von Frey filaments using incremental bending forces (0.5-15 g) at various time points after drug administration. Carrageenan model: Carrageenan (100 μl, 3%) is injected into the plantar surface of the right paw, and drug is administered two hours after carrageenan. Thermal hyperalgesia is measured using a radiant heat source, with a 30 second cut off to prevent tissue damage. Paw withdrawal latency in seconds is measured as the difference between the inflammed paw and the non-inflammed left paw. Capsaicin model: Drug is administered prior to capsaicin. Capsaicin (25 μl, 30 μg) in olive oil is injected into the plantar surface of the right paw. Mechanical allodynia behavior is measured using von Frey filaments using incremental bending forces (0.5-15 g) at 15 minutes and 1 hour after capsaicin. Tail Flick model: Radiant heat source at base of tail with 10 sec cut off is used to elicit tail flick response at various time points after drug administration. Rotorod test: Male Sprague Dawley rats (180-230 g, Harlan labs, Indianapolis) are used for the rotorod test. […] Data are analyzed by ANOVA and Dunnett's t-test using JMPv4.1 (SAS Institute Inc., Cary, N.C.) statistical software. Data are expressed as means±SEM.

[5] = test system: fasted male Harlan Sprague Dawley rats; test: Tail Flick model; type: in vivo, rat; details: fasted male HSD rats, at doses with no deficit in the rotorod test
Protocol: as §1, §2

[6] = in vivo; cited from earlier work
[7] = in vivo; cited from earlier work; remark: listed apart in the source

Row | Compound | activity in the L5/L6 spinal nerve ligation model (non-fasted male HSD rats) | performance in the rotorod test (Male Sprague Dawley rats) | activity in the capsaicin model [1] | IC50 [2] | activity in the carrageenan model [3] | activity in the formalin model ([4]; fasted male HSD rats, at doses with no deficit in the rotorod test) | late phase pain behavior (paw-licking, 15-40 minutes) ([4]; fasted rats, 3 to 60 mg/kg, p.o., 1 hour prior to formalin) | activity in the tail flick model [5] | late phase pain behavior (paw-licking, 15-40 minutes) ([4]; 1 to 30 mg/kg) | nocifensive responses in the formalin test [6] | mechanical allodynia in the L5/L6 spinal nerve ligation model [7]
1 | COc1ccc(-c2nsc(NC(=O)[C@@H]3C[C@H]3C)c2C)cc1 [Example 1, (R,R)—N-[3-(4-methoxyphenyl)-4-methylisothiazol-5-yl]-2-methylcyclopropanecarboxamide] | dose-dependent activity | no deficit in performance | dose-dependent activity | < 20 nM | dose-dependent activity | dose-dependent activity | dose dependent attenuation | dose-dependent activity |  |  | 
2 | Cc1c(-c2ccc(Cl)cc2)nsc1NC(=O)[C@@H]1C[C@H]1C [Example 6, (R,R)—N-[3-(4-chlorophenyl)-4-methylisothiazol-5-yl]-2-methylcyclopropanecarboxamide] |  |  |  | < 20 nM |  |  |  |  | dose dependent attenuation |  | 
3 | COc1ccc(Nc2ncnc3ccc(OC)cc23)cc1 [LY456236] |  |  |  |  |  |  |  |  |  | can reduce nocifensive responses | can reduce
